Source: patent publication US6232089A, “CD23 processing enzyme preparation” (SmithKline Beecham Corporation, priority 1998, dated 2001)
Entries after “also recorded” stand apart in the source; their conditions may differ. Where a name gives a salt, the structure may show the parent alone. Each block holds one compound with its values, some of them ahead of it.

Experiments:
CD23 processing enzyme [1] = test: Solubilized membrane protein CD23 processing enzyme assay; type: biochemical, human; conditions: concentration not given
CD23 processing enzyme [2] = test: Membrane CD23 cleavage activity assay (sCD23 release from plasma membranes of RPMI 8866 cells); type: biochemical, human; conditions: for IC50: membranes, read-out: IC50 for inhibition of CD23 processing (production of sCD23)
Method: Membrane CD23 cleavage activity assay:
Plasma membranes from RPMI 8866 cells, a human Epstein-Barr virus transformed B-cell (Sarfati et al., Immunology 60 (1987) 539-547), or a similar cell line expressing high levels of CD23 are purified using an aqueous extraction method. Cells resuspended in homogenization buffer (20 mM HEPES pH 7.4, 150 mM NaCl, 1.5 mM MgCl2, 1 mM DTT) are broken by N2 cavitation in a Parr bomb and the plasma membrane fraction mixed with other membranes recovered by centrifugation at 10,000×g. The light pellet is resuspended in 0.2 M potassium phosphate, pH 7.2 using 2 ml per 1-3 g wet cells and the nuclear pellet is discarded. The membranes are further fractionated by partitioning between Dextran 500 (6.4% w/w) and polyethylene glycol (PEG) 5000 (6.4% w/w) at 0.25 M sucrose in a total of 16 g per 10-15 mg membrane proteins (Morre and Morre, BioTechniques 7, 946-957 (1989)). The phases are separated by brief centrifugation at 1000×g and the PEG (upper) phase is collected, diluted 3-5 fold with 20 mM potassium phosphate buffer pH 7.4, and centrifuged at 100,000×g to recover membranes in that phase. The pellet is resuspended in phosphate-buffered saline and consists of 3-4 fold enriched plasma membranes as well as some other cell membranes (e.g. lysosomes, Golgi). The membranes are aliquoted and stored at -80° C. Fractionation at 6.6% Dextran/PEG yields plasma membranes enriched 10-fold.
The fractionated membranes are incubated at 37° C. for times up to 4 hours to produce fragments of CD23 which are separated from the membrane after quenching the assay with 5 uM compound 1 by centrifugation at 10,000×g. These CD23 fragments are consistent with those reported (Letellier et al, J Exp. Med. 172, 693-700 (1990)): MW, app 36-37 kDa as determined by 12% sodium dodecylsulfate-polyacrylamide electrophoresis (SDS-PAGE) of N-terminal sequence QKSQ; MW, app 33 kDa with N-terminal sequence LKSQ. Additional bands not sequenced: MW, app 28-29 kDa and a doublet at 25-26 kDa. These are detected by Western blot of the total protein in the incubation using a polyclonal antibody such as the polyclonal anti-CD23 antibody in The Binding Site (Birmingham, UK) enzyme-linked immunoassay (EIA) Bindazyme kit for the determination of soluble CD23. Following removal of the membrane by centrifugation or filtration in 0.2 micron filter plates (Durapore, Millpore), sCD23 can also be determined using the EIA kit from The Binding Site or a similar one utilizing MHM6 anti-CD23 mAb (Rowe et al., Int. J. Cancer, 29, 373-382 (1982)) or another anti-CD23 mAb as the capture antibody in a sandwich EIA. […] Samples were incubated at 37° C. for the varying times, quenched with compound 1, applied to 12% SDS-PAGE, and Western blotting on PVDF (Bio-Rad) membrane performed using standard methodology with a combination of BD4 (prepared as described in Biological example 2) and a polyclonal antibody which recognizes all soluble fragments as the primary antibody. The blot was developed by ECL, scanned using a BioImage system and quantitated using the Visage analysis package.
Inhibition of CD23 processing can also be determined by Western blot or by the 5 EIA (Elisa) method. The amount of soluble CD23 made by 0.5-5 ug membrane protein is measured either by quantitation of the Western blot as described using a Millipore BioImage system, or by EIA and compared to the amount made in the presence of various concentrations of inhibitors. Inhibitors are prepared in solutions of water or dimethylsulfoxide (DMSO) and the final DMSO concentration is not more than 2%. The enzyme activity of CD23 processing is inhibited by 1,10-phenanthroline (1 mM), and not by 1,7-phenanthroline (1 mM), PMSF (1 mM), E-64 (10 uM), pepstatin (10 uM), leupeptin (10 uM), or tosyl-leucylchloroketone (100 uM), and weakly by phosphoramidon (40% inhibition at 100 uM). The enzyme can heretofore best be described as a metalloprotease rather than a serine, cysteine or acid protease. […]

CD23 processing activity = test: Affinity chromatography with compound 8 on streptavidin-agarose; type: binding, human
Method: Affinity Chromatography with compound 8 (compound 28 in synthetic examples)
An affinity column was prepared with compound 8 on streptavidin-agarose beads (Pierce Chemical Co.) by overnight mixing of an estimated five equivalents of compound 8 with beads in 50 mM HEPES, pH 7.5, 0. 1% NP-40 (binding buffer). The column was washed with 20 volumes of this buffer and 20 volumes of 50 mM HEPES pH 7.5, 0.5% NP-40 in a syringe column, and re-equilibrated to binding buffer. An equivalent column with no compound 8 was also prepared. 150 ug of solubilized membranes from RPMI 8866 cells were applied to the both columns, washed with 3 ml binding buffer, 3 ml binding buffer with 0.1 M NaCl, and 3 ml binding buffer with 50 uM compound 2. Each 1 ml fraction was concentrated, diluted 10-fold and reconcentrated if compound 2 was present, and assayed as in biological example 2. For the column with no compound 8, CD23 processing activity was detected primarily in fractions 1-3, with a small amount in fractions 5 and 6.

[3] = system: solubilized membrane proteins from BJAB cells; test: Photolabeling of Superose 12 column fractions of solubilized membrane proteins, SDS-PAGE; type: binding; conditions: 1 uM compound 3, long UV, 1 min, Superose 12 fractions, single band
Method: Compound 3 is an inhibitor of CD23 processing in membranes with an IC50 of about 1-3 uM. Compound 3 (the synthesis of which is described in the Synthetic Examples section as Example 9), is [N-[4-N'-Hydroxyamino-2-(R)-2-(2-methylpropyl)succinyl]-S-4-azidophenylalanine-N"-(6-biotinoylaminohexyl)amide]. Compound 3 was prepared for use as a photolabeling agents as follows. [drawing 1]
Column fractions from a Superose 12 column of solubilized membrane proteins from BJAB cells were photolabeled with 1 uM compound 3 using a Sunlit phosphor lamp at long UV for 1 min. […] Active fractions from RPMI 8866 fractionations are similarly photolabeled.
Fractions were concentrated, photolabeled as described, applied to 12% SDS-PAGE, blotted to PVDF and photolabeled material detected with streptavidin-horseradish peroxidase (streptavidin-HRP) using ECL (Amersham) methodology. Fraction "0" indicates the photolabeling observed in an unfractionated sample. The 45 kDa MW marker protein migrated with an elution volume corresponding to fractions 17 or 18. The fraction sizes are not the same as FIG. 7.

CD23 processing enzyme [4] = test: Photolabeling of membranes or solubilized membrane proteins containing the CD23 processing enzyme, 12% SDS-PAGE / 2-dimensional gel electrophoresis; type: binding; conditions: for molecular weight range of majority of minor biotinylated spots / pH range of minor biotinylated spots (acidic proteins): 2-dimensional gel electrophoresis, 0.1 to 0.3 uM compound 4 or 1 uM compound 3; for molecular weight range of photolabeled bands: 12% SDS-PAGE, ECL detection, several bands
Method: Compound 4 (Synthetic Example 17), Compound 5 (Synthetic Example 17a), Compound 6 (Synthetic Example 25), and Compound 7 (Synthetic Example 27) can also be used to photolabel membranes or solubilized membrane proteins containing the CD23 processing enzyme, using the same method described for compound 3. Analysis by 12% SDS-PAGE and ECL detection of biotinylated protein, using streptavidin-HRP detects several bands in the molecular weight range 50-65 kDa.
Up to 200 ug of membrane proteins in PBS were solubilized in 0.1 % NP-40 and photolabeled with 0.1 to 0.3 uM compound 4 or 1 uM compound 3 as described for compound 3 above. The sample was then dialyzed vs. 10 mM potassium phosphate pH 7.5, 0.1% NP-40, concentrated in a Centricon 10 (Amicon, Beverly Mass.), then made 8 M in urea, 2% in Triton X-100, 0. 8% in Pharmalyte 3-10 (Pharmacia) and 50 mM in DTT. After electrophoresis in both dimensions, the proteins were blotted to PVDF, and biotinylated proteins detected with streptavidin-HRP as described above. The majority of the minor biotinylated spots observed were in the molecular weight range 50-65 kDa and were acidic proteins with pH in the range 4.5-6.0.

CD23 fragments = conditions: 10-20 mM, cell cultures; cited from earlier work

SMILES: c1cnc2c(c1)ccc1cccnc12 [1,10-phenanthroline]
inhibition of activity producing the 33 kDa fragment (CD23 processing enzyme [1]): inhibition; also recorded: inhibited
inhibition of CD23 processing (CD23 processing enzyme [2]; 1 mM): inhibited

SMILES: CC(C)(C)[C@H](NC(=O)[C@H](Cc1ccc(N=[N+]=[N-])cc1)[C@H](O)C(=O)NO)C(=O)NCCCCCCNC(=O)CCCC[C@@H]1SC[C@@H]2NC(=O)N[C@@H]21 [Compound 6, N'-[3S-Hydroxy-4-(N-hydroxyamino)-2R-(4-azidobenzyl)succinyl]-S-tert-leucine-N-(6-biotinoylaminohexyl)amide]
molecular weight range of photolabeled bands (CD23 processing enzyme [4]): 50-65 kDa

SMILES: C#CCSC[C@H](C(=O)NO)[C@@H](CC(C)C)C(=O)N[C@@H](Cc1ccccc1)C(=O)NCCCCCCNC(=O)CCCC[C@@H]1SC[C@@H]2NC(=O)N[C@@H]21 [Compound 8, N-[(3-(S)-propargylthiomethyl-4-(N-Hydroxyamino)-2R-isobutyl)succinyl]-(S)-phenylalanine-N-(6-biotinoylaminohexyl)amide]
fractions in which CD23 processing activity was detected, column with compound 8 (CD23 processing activity; binding buffer, then 0.1 M NaCl, then 50 uM compound 2, fractions 1-9): only in fractions 7-9
inhibition of CD23 processing (CD23 processing enzyme [2]; concentration not given): inhibitor of CD23 cleavage activity

SMILES: Cc1ccc(S(=O)(=O)N[C@@H](CCCCN)C(=O)CCl)cc1 [TLCK]
inhibition of CD23 processing (CD23 processing enzyme [2]; concentration not given): not inhibited

SMILES: NC(=O)CI [iodoacetamide]
accumulation of 37 and 33 kDa CD23 fragments (CD23 fragments): results in the accumulation
accumulation of the 25-27 kDa CD23 fragments (CD23 fragments): prevents the accumulation

SMILES: CC(C)C[C@H](NP(=O)(O)O[C@@H]1O[C@@H](C)[C@H](O)[C@@H](O)[C@H]1O)C(=O)N[C@@H](Cc1c[nH]c2ccccc12)C(=O)O [phosphoramidon]
inhibition (CD23 processing enzyme [2]; 100 uM): 40%
inhibition of CD23 processing (CD23 processing enzyme [2]; 100 uM): weakly

More lines, main results first:

inhibition of activity producing the 33 kDa fragment (CD23 processing enzyme [1]): inhibited
IC50 (CD23 processing enzyme [2]): 100 ± 50 nM
SMILES: CNC(=O)[C@H](Cc1ccccc1)NC(=O)[C@H](CC(C)C)[C@H](CSc1cccs1)C(=O)NO [Compound 1, [4-(N-Hydroxyamino)-2-(R)-isobutyl-3-(S)-(2-thiophenethiomethyl)succinyl]-(S)-phenylalanine-N-methylamide, sodium salt]
inhibition of CD23 processing (CD23 processing enzyme [2]; concentration not given): inhibited

IC50 (CD23 processing enzyme [2]): 2000 ± 1000 nM
SMILES: CC(C)C[C@H](CC(=O)NO)C(=O)N[C@@H](Cc1ccccc1)C(=O)NCc1ccccc1 [Compound 2]
elution of CD23 processing activity from affinity column with compound 8 (CD23 processing activity; 50 uM compound 2): specifically eluted
inhibition of CD23 processing (CD23 processing enzyme [2]; concentration not given): weaker inhibitor

IC50 (CD23 processing enzyme [2]): 1000 to 3000 nM
molecular weight range of majority of minor biotinylated spots (CD23 processing enzyme [4]): 50-65 kDa
pH range of minor biotinylated spots (acidic proteins) (CD23 processing enzyme [4]): 4.5-6.0
SMILES: CC(C)C[C@H](CC(=O)NO)C(=O)N[C@@H](Cc1ccc(N=[N+]=[N-])cc1)C(=O)NCCCCCCNC(=O)CCCC[C@@H]1SC[C@@H]2NC(=O)N[C@@H]21 [Compound 3, N-[4-N'-Hydroxyamino-2-(R)-2-(2-methylpropyl)succinyl]-S-4-azidophenylalanine-N"-(6-biotinoylaminohexyl)amide]
MW, app of photolabeled band [3]: 45 kDa

molecular weight range of majority of minor biotinylated spots (CD23 processing enzyme [4]): 50-65 kDa
pH range of minor biotinylated spots (acidic proteins) (CD23 processing enzyme [4]): 4.5-6.0
molecular weight range of photolabeled bands (CD23 processing enzyme [4]): 50-65 kDa
SMILES: CC(C)C[C@@H](C(=O)N[C@@H](Cc1ccccc1)C(=O)NCCCCCCNC(=O)CCCC[C@@H]1SC[C@@H]2NC(=O)N[C@@H]21)[C@H](CSCC(=NO)c1ccc(N=[N+]=[N-])cc1)C(=O)NO [Compound 4, N-[4-N' Hydroxyamino-3-(S)-3-[(2-[4-azidophenyl]-2-[hydroxyimino]ethyl)-thiomethyl]-2-(R)-2-(2-methylpropyl)succinyl]-S-phenylalanine-N'-(6biotinoylaminohexyl)amide]

molecular weight range of photolabeled bands (CD23 processing enzyme [4]): 50-65 kDa
SMILES: CC(C)C[C@@H](C(=O)N[C@@H](Cc1ccccc1)C(=O)NCCCCCCNC(=O)CCCC[C@@H]1SC[C@@H]2NC(=O)N[C@@H]21)[C@H](CSCC(=O)c1ccc(N=[N+]=[N-])cc1)C(=O)NO [Compound 5, N-[4-Hydroxyamino-3-(S)-3-(4-azidophenacylthiomethyl)-2-(R)-2-(2-methylpropyl)succinyl]-S-phenylalanine-N'-(6-biotinoylaminohexyl)amide]

molecular weight range of photolabeled bands (CD23 processing enzyme [4]): 50-65 kDa
SMILES: CC(C)C[C@@H](C(=O)N[C@@H](Cc1ccccc1)C(=O)NCCCCCCNC(=O)CCCC[C@@H]1SC[C@@H]2NC(=O)N[C@@H]21)[C@H](CSCc1ccc(C(=O)c2ccccc2)cc1)C(=O)NO [Compound 7, N-[(3-(S)-(4-benzoylbenzyl)thiomethyl-4-(N-Hydroxyamino)-2R-isobutyl)succinyl]-(S)-phenylalanine-N-(6-biotinoylaminohexyl)amide]
